This note sets out measurements from patent publication US6812243B2, “Indole derivatives and their use for the treatment of malignant and other diseases based on pathological proliferation” (Zentaris AG, priority 1998, dated 2004).

Data set [1] addresses T1, EGF receptor tyrosine kinase (Homo sapiens, UniProt P00533).
T1 construct: tested in intact A431 cells; endogenous in cells; host or cells: A431 cells
The data set can be described thus: EGFR phosphorylation in intact A 431 cells. The conditions noted are these: intact A431 cells; read-out: EGFR phosphorylation in vivo (A 431 cells), IC 50. The class given is cell-based. On the procedure:
The compounds according to the invention were furthermore investigated in vitro using isolated plasma membranes of Swiss 3T3 cells and using PDGF receptor purified from overexpressing cells, tested in intact A431 cells (and in some cases also in Swiss 3T3 plasma membranes) for possible inhibition of the EGF receptor tyrosine kinase and tested for inhibition of recombinant Src kinase.
30 μM. The compounds thus have specificity for the inhibition of the PDGF receptor tyrosine kinase in relation to other tyrosine kinases.

Data set [2] has as its target T2, PDGF receptor (Mus musculus, UniProt P05622).
T2 construct: other: Swiss 3T3 cells, 2 h incubation with compound; PDGFR phosphorylation in vivo (Swiss 3T3 cells), IC 50; other: intact Swiss 3T3 cells; PDGFR phosphorylation in vitro (Swiss 3T3 membranes), IC 50; other: isolated plasma membranes of Swiss 3T3 cells
The data set can be described thus: Inhibition of PDGF-dependent tyrosine phosphorylation in intact Swiss 3T3 cells. In kind it is cell-based. The conditions noted are these: 2 h incubation with compound, PDGF-BB 100 ng/ml for 5 min, read-out: IC 50 (μM), inhibition of PDGF-dependent tyrosine phosphorylation.
Protocol: Swiss 3T3 cells are cultured for 1 week under standard conditions (DMEM with glutamine, 4 g of glucose/1, 10% FCS, antibiotics, 5-7.5% CO2) and are confluent and no longer proliferating at the end of the culture period. The medium is replaced by serum-free DMEM and the cells are incubated at 37° C. for 2 h with the compounds according to the invention or, in control experiments, with DMSO (final concentration 0.1-1%). The cells are then stimulated at room temperature for 5 min by addition of PDGF-BB to a final concentration of 100 ng/ml, in controls addition of the corresponding solvent takes place. The cells are then washed twice with ice-cold PBS and lysed in a Triton X-100-containing lysis buffer (composition and process as described in Selective platelet-derived growth factor receptor kinase blockers reverse sis-transformation M. Kovalenko, A. Gazit, A. Böhmer, C. Rorsman, L. Rönnstrand, C. H. Heldin, J. Waltenberger, F. D. Böhmer, A. Levitzki (1994) Cancer Res. 54, 6106-6114). The lysates are centrifuged and the protein concentration is determined. […]
Tyrosine phosphorylation is detected by standard processes using antiphosphosphotyrosine [sic]antibodies. […] Quantification is carried out either by grey value analyses of films used for the luminescence detection or directly using a luminometer. […]

T2 sequence (P05622 32-1098): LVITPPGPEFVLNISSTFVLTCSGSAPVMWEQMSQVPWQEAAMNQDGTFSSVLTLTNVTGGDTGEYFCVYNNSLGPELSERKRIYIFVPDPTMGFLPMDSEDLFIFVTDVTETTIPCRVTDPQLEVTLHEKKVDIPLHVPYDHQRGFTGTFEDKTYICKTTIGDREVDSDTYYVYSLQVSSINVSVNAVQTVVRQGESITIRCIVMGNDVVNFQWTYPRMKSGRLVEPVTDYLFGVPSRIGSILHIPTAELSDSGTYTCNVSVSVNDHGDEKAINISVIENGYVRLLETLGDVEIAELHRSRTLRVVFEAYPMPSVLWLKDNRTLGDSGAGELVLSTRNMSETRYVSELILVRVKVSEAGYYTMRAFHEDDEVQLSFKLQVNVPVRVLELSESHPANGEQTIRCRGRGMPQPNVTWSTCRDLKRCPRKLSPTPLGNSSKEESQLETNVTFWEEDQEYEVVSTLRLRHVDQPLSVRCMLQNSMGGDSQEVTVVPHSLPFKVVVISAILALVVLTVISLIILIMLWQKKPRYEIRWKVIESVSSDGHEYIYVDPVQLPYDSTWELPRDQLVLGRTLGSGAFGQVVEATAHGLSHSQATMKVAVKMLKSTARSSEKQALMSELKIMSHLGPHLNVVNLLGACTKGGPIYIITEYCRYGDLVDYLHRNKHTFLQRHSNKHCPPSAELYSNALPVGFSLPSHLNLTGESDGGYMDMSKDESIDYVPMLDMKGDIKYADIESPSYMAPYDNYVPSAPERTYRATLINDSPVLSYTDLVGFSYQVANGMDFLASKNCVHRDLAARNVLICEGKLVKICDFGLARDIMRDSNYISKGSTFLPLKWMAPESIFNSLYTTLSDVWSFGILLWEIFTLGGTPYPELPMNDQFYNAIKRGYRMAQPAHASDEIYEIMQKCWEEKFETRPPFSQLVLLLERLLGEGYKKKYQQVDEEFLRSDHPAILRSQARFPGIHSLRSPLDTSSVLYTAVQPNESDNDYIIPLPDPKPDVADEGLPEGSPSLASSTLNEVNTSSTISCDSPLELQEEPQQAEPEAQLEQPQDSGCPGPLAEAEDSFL
T1 sequence (P00533 25-1210): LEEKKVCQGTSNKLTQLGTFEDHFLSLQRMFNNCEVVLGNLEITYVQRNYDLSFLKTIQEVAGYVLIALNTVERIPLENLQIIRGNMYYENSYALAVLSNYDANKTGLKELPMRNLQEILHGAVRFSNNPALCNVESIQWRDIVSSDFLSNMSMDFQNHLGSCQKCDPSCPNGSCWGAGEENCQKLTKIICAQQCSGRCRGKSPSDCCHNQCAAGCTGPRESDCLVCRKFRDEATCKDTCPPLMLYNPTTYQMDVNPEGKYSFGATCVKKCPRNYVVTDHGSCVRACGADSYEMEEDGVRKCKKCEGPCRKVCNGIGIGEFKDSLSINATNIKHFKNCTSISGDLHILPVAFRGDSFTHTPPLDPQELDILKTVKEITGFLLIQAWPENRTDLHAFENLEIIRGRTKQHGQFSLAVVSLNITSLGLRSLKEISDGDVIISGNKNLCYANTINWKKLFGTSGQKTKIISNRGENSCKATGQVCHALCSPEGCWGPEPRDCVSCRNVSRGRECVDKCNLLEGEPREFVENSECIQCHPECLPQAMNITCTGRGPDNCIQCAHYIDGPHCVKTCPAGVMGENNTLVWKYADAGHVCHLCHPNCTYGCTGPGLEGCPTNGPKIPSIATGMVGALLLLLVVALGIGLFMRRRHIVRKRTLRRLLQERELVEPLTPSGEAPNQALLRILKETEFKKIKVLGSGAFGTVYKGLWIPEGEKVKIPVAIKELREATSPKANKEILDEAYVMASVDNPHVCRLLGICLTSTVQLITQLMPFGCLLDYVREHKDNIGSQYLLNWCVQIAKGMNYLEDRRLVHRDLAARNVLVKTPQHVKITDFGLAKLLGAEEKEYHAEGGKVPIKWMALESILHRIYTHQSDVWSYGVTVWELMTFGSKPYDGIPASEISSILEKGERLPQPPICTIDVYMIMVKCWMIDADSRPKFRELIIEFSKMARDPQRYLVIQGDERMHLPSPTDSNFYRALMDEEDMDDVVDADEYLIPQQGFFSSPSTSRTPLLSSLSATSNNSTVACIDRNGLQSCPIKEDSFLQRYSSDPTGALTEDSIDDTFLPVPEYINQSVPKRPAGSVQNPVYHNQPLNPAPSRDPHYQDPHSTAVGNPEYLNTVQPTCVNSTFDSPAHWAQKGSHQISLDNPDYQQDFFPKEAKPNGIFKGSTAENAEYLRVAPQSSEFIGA

A word on the melting point: it is the temperature of the solid-liquid transition. The compound `COc1ccc2[nH]c(C(=O)c3cc4ccccc4[nH]3)cc2c1` [Example 20, (5-Methoxyindol-2-yl)-(indol-2-yl)methan-1-one] showed a melting point of 233 to 235 °C. Also, the IC50 in data set [1] was greater than 10000 nM. `O=C(c1cc2ccccc2[nH]1)c1cc2cc(OCCCCCI)ccc2[nH]1` [Example 50, 5-(5-Iodopentyloxy)-1H-2-indolyl(1H-2-indolyl)methanone] came in with a melting point of 127 to 130 °C.

Take `CN(C)CC(=O)Oc1ccc2[nH]c(C(=O)c3cc4ccccc4[nH]3)cc2c1` [Example 56]: the melting point was in the range of 215 to 217 °C. In the case of `CCC(=O)Oc1ccc2[nH]c(C(=O)c3cc4ccccc4[nH]3)cc2c1` [Example 57], the melting point is greater than 230 °C. `O=C(Cc1cccs1)Oc1ccc2[nH]c(C(=O)c3cc4ccccc4[nH]3)cc2c1` [Example 58]: the IC50 in data set [2] fell in the range of 0.3 to 1 µM. The compound `COc1ccc2c(c1)cc(Cc1cc3cc(OC)ccc3n1S(=O)(=O)c1ccccc1)n2S(=O)(=O)c1ccccc1` [Example 71, Bis(5-methoxy-N-phenylsulphonylindol-2-yl)methane] displayed a melting point of 159 to 160 °C. With `COc1ccc2c(c1)cc(Cc1cc3ccccc3n1S(=O)(=O)c1ccccc1)n2S(=O)(=O)c1ccccc1` [Example 72, (5-Methoxy-N-phenylsulphonylindol-2-yl)-(N-phenyl-sulphonylindol-2-yl)methane], the melting point lay in the range of 98 to 100 °C. Same read-out and setting: the figure for `COc1ccc2c(c1)cc(Cc1cc3cccc(OC)c3n1S(=O)(=O)c1ccccc1)n2S(=O)(=O)c1ccccc1` [Example 73, (5-Methoxy-N-phenylsulphonylindol-2-yl)-(7-methoxy-N-phenylsulphonylindol-2-yl)methane] is 168 to 170 °C; for `COc1ccc2[nH]c(C(=O)c3cc4ccccc4[nH]3)cc2c1` [Example 75, (5-Methoxyindol-2-yl)-(indol-2-yl)methanone] it is 112 °C. The same measure, in the same setting: the figure for `COc1ccc2[nH]c3c(c2c1)C1=C(C(=O)NC1=O)c1c([nH]c2ccccc12)C3` [Example 82, 1,2,3,8,9,10-Hexahydro-5-methoxyindolo[3′,2′:5,6]-pyrrolo[3′,4′:3,4]-cyclohepta[b]indole-1,3-dione] is greater than 350 °C. Same read-out and setting: the value for `CN1C(=O)C2=C(C1=O)c1c([nH]c3ccccc13)CCc1[nH]c3ccccc3c12` [Example 84, 1,2,3,8,9,10,11-Heptahydro-2-methylindolo[3′,2′:5,6]-pyrrolo[3′,4′:3,4]-cycloocta[b]indole-1,3-dione] was greater than 350 °C. As to `O=C1C2=C(C(=O)N1COCc1ccccc1)c1c([nH]c3ccccc13)Cc1[nH]c3ccccc3c12` [Example 85, 2-Benzyloxymethyl-1,2,3,8,9,10-hexahydroindolo-[3′,2′:5,6]-pyrrolo[3′,4′:3,4]-cyclohepta[b]indole-1,3-dione], the melting point is greater than 350 °C. Still for that read-out and setting: the figure for `CN(C)CCn1c2c(c3ccccc31)C1=C(C(=O)OC1=O)c1c([nH]c3ccccc13)C2` [Example 87, 3,8,9,10-Tetrahydro-8-[2-(N,N-dimethylamino)ethyl]-1H-indolo[3′,2′:5,6]furo[3′,4′:3,4]cyclohepta[b]indole-1,3-dione] is greater than 350 °C.

Turning to `CN(C)CCn1c2c(c3ccccc31)C1=C(C(=O)N(COCc3ccccc3)C1=O)c1c([nH]c3ccccc13)C2` [Example 88, 2-Benzyloxymethyl-1,2,3,8,9,10-hexahydro-8-[2-(N,N-di-methylamino)ethyl]indolo[3′,2′:5,6]pyrrolo[3′,4′:3,4]-cyclohepta[b]indole-1,3-dione], the melting point was 164 to 165 °C. For `CN(C)CCn1c2c(c3ccccc31)C1=C(C(=O)NC1=O)c1c([nH]c3ccccc13)C2` [Example 90, 1,2,3,8,9,10-Hexahydro-8-[2-(N,N-dimethylamino)ethyl]-indolo[3′,2′:5,6]pyrrolo[3′,4′:3,4]cyclohepta[b]indole-1,3-dione], the melting point was 213 to 214 °C. `CN1C(=O)C(Br)=C(c2c(CCc3cc4ccccc4[nH]3)[nH]c3ccccc23)C1=O` [Example 91, 3-Bromo-4-(2-(2-(1H-2-indolyl)ethyl)-1H-3-indolyl)-1-methyl-2,5-dihydro-1H-pyrrole-2,5-dione] displayed a melting point of 169 °C. In the case of `CN1C(=O)C(Br)=C(c2c(CCCCc3cc4ccccc4[nH]3)[nH]c3ccccc23)C1=O` [Example 92, 3-Bromo-4-(2-(4-(1H-2-indolyl)butyl)-1H-3-indolyl)-1-methyl-2,5-dihydro-1H-pyrrole-2,5-dione], the melting point was 165 °C (dec.).

Regarding `CN1C(=O)C(Br)=C(c2c(CCCCCc3cc4ccccc4[nH]3)[nH]c3ccccc23)C1=O` [Example 93, 3-Bromo-4-(2-(5-(1H-2-indolyl)pentyl)-1H-3-indolyl)-1-methyl-2,5-dihydro-1H-pyrrole-2,5-dione], the melting point is 125 °C (dec.). On the same count and under the same terms, the figure for `O=C(c1c[nH]c2ccccc12)c1c[nH]c2ccccc12` [Example 94, Bis(indol-3-yl)methanone] is 297 to 299 °C; for `CN1C(=O)C(Br)=C(c2c(CCCCCc3[nH]c4ccccc4c3C3=C(Br)C(=O)N(C)C3=O)[nH]c3ccccc23)C1=O` [Example 112, 3-Bromo-4-(2-(5-(3-(4-bromo-1-methyl-2,5-dioxo-2,5-dihydro-1H-3-pyrrolyl)-1H-2-indolyl)pentyl)-1H-3-indolyl)-1-methyl-2,5-dihydro-1H-pyrrole-2,5-dione] it is 137 °C (dec.). Same read-out and setting: the value for `O=C1NC(=O)C(c2c(CCCc3[nH]c4ccccc4c3C3=C(Br)C(=O)NC3=O)[nH]c3ccccc23)=C1Br` [Example 113, 3-Bromo-4-(2-(3-(3-(4-bromo-2,5-dioxo-2,5-dihydro-1H-3-pyrrolyl)-1H-2-indolyl)propyl)-1H-3-indolyl)-2,5-dihydro-1H-pyrrole-2,5-dione] was greater than 350 °C; that for `O=C1NC(=O)C(c2c(CCCCCc3[nH]c4ccccc4c3C3=C(Br)C(=O)NC3=O)[nH]c3ccccc23)=C1Br` [Example 114, 3-Bromo-4-(2-(5-(3-(4-bromo-2,5-dioxo-2,5-dihydro-1H-3-pyrrolyl)-1H-2-indolyl)pentyl)-1H-3-indolyl)-2,5-dihydro-1H-pyrrole-2,5-dione] was > 350 °C (dec.); that for `O=C1NC(=O)C(c2c(CCCCCCCCc3[nH]c4ccccc4c3C3=C(Br)C(=O)NC3=O)[nH]c3ccccc23)=C1Br` [Example 115, 3-Bromo-4-(2-(8-(3-(4-bromo-2,5-dioxo-2,5-dihydro-1H-3-pyrrolyl)-1H-2-indolyl)octyl)-1H-3-indolyl)-2,5-dihydro-1H-pyrrole-2,5-dione] was 180 °C (dec.).

Regarding `CN1C(=O)C(Br)=C(c2c(CCc3[nH]c4ccccc4c3C3=C(Br)C(=O)N(C)C3=O)[nH]c3ccccc23)C1=O` [Example 116, 3-Bromo-4-(2-(2-(3-(4-bromo-1-methyl-2,5-dioxo-2,5-dihydro-1H-3-pyrrolyl)-1H-2-indolyl)ethyl)-1H-3-indolyl)-1-methyl-2,5-dihydro-1H-pyrrole-2,5-dione], the melting point amounted to 179 °C. On to `CN1C(=O)C(Br)=C(c2c(CCCCc3[nH]c4ccccc4c3C3=C(Br)C(=O)N(C)C3=O)[nH]c3ccccc23)C1=O` [Example 117, 3-Bromo-4-(2-(4-(3-(4-bromo-1-methyl-2,5-dioxo-2,5-dihydro-1H-3-pyrrolyl)-1H-2-indolyl)butyl)-1H-3-indolyl)-1-methyl-2,5-dihydro-1H-pyrrole-2,5-dione], for which the melting point is 190 °C (dec.). The same measure, in the same setting: the figure for `CN1C(=O)C(Br)=C(c2c(CCCCCCCCc3[nH]c4ccccc4c3C3=C(Br)C(=O)N(C)C3=O)[nH]c3ccccc23)C1=O` [Example 118, 3-Bromo-4-(2-(8-(3-(4-bromo-1-methyl-2,5-dioxo-2,5-dihydro-1H-3-pyrrolyl)-1H-2-indolyl)octyl)-1H-3-indolyl)-1-methyl-2,5-dihydro-1H-pyrrole-2,5-dione] is 185 °C (dec.); for `O=C1NC(=O)C(c2c(CCCCCCCCCCc3[nH]c4ccccc4c3C3=C(Br)C(=O)NC3=O)[nH]c3ccccc23)=C1Br` [Example 120, 3-Bromo-4-(2-(10-(3-(4-bromo-2,5-dioxo-2,5-dihydro-1H-3-pyrrolyl)-1H-2-indolyl)decyl)-1H-3-indolyl)-2,5-dihydro-1H-pyrrole-2,5-dione] it is 164 °C (dec.); for `CN1C(=O)C(c2c(CCCCCc3[nH]c4ccccc4c3C3=C(N4CCCCC4)C(=O)N(C)C3=O)[nH]c3ccccc23)=C(N2CCCCC2)C1=O` [Example 124, 1-Methyl-3-(1-piperidinyl)-4-(2-(5-(3-(1-methyl-4-(1-piperidinyl)-2,5-dioxo-2,5-dihydro-1H-3-pyrrolyl)-1H-2-indolyl)pentyl)-1H-3-indolyl)-2,5-dihydro-1H-pyrrole-2,5-dione] it is 262 °C.
